The values below come from PubChem BioAssay (NCI).

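Each compound was tested at five concentrations against cells in 96-well plates for 48 hours. The concentration for full growth arrest is given as TGI.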

Some test systems named below: OVCAR-3 ovarian; SF-295 CNS; KM12 colon; HCC-2998 colon; HOP-62 NSCLC; DU-145 prostate; SK-MEL-5 melanoma; MALME-3M melanoma; PC-3 prostate; HS 578T breast; SNB-75 CNS.
Test in all cases: growth of human tumour cells (NCI), 48 h

Take `CC1CCN(C(C)C)P(=S)(Cc2ccccc2)O1` (stereo not drawn): the TGI with OVCAR-3 ovarian, in the test on SF-295 CNS, with KM12 colon, in the test with HCC-2998 colon, with HOP-62 NSCLC and in the test on DU-145 prostate was over 100 µM in each case. Besides, the TGI in the test on SK-MEL-5 melanoma, with MALME-3M melanoma and in the test on PC-3 prostate was over 100 µM in each case.
Consider `CCCCCCN(CCCCCC)CCC(=O)c1ccc2cc(Br)c3ccccc3c2c1`, for which the TGI in the test on OVCAR-3 ovarian was over 100 µM; in the test on SF-295 CNS, over 100 µM; with KM12 colon, 52.9 µM; with HCC-2998 colon, over 100 µM; in the test with HOP-62 NSCLC it was over 100 µM; in the test with DU-145 prostate, over 100 µM. The TGI is 96.1 µM in the test with SK-MEL-5 melanoma, over 100 µM with HS 578T breast, over 100 µM with MALME-3M melanoma and over 100 µM in the test on PC-3 prostate.
As to `COc1ccc(C2SCC(=O)N2c2ccc(-n3c(-c4ccccc4)nc4ccccc4c3=O)cc2)cc1` (stereo not drawn), the TGI in the test with OVCAR-3 ovarian, in the test with SF-295 CNS, in the test on KM12 colon, in the test on HCC-2998 colon, in the test on HOP-62 NSCLC and with DU-145 prostate was over 100 µM each time. For the same compound, the TGI in the test on SK-MEL-5 melanoma was over 100 µM; in the test with SNB-75 CNS, 79.3 µM; in the test on PC-3 prostate, over 100 µM.
Take `CN1CCC2(CC1)SSC1(CCN(C)CC1)S2`: the TGI in the test on SF-295 CNS, in the test with KM12 colon, in the test on HOP-62 NSCLC, in the test on SK-MEL-5 melanoma, with SNB-75 CNS and with HS 578T breast was over 100 µM throughout. Also, in the test on PC-3 prostate, the TGI was over 100 µM.
Regarding `Cc1ccc2c(c1)nc1n2C(c2c(F)cccc2F)SC1` (stereo not drawn), the TGI in the test with OVCAR-3 ovarian, with SF-295 CNS, in the test on KM12 colon, in the test on HCC-2998 colon, with HOP-62 NSCLC and with SNB-75 CNS was over 100 µM each time. In addition, the TGI in the test on HS 578T breast is 92.7 µM; in the test on MALME-3M melanoma it was 93.3 µM; in the test on PC-3 prostate, over 100 µM.
In the case of `Cn1c(-c2ccc(C=O)o2)ccc1-c1ccc(C=O)o1`, the TGI with OVCAR-3 ovarian is 81.2 µM; in the test on SF-295 CNS, over 100 µM; with KM12 colon, over 100 µM; in the test on HCC-2998 colon, over 100 µM; with HOP-62 NSCLC, over 100 µM; in the test on DU-145 prostate, over 100 µM. For the same compound, the TGI in the test with SK-MEL-5 melanoma, in the test with SNB-75 CNS, in the test on MALME-3M melanoma and in the test on PC-3 prostate was over 100 µM in each case.
Take `CCOC(=O)CNC(=O)C(CCC(=O)N(C)O)NC(=O)CCC(N)C(=O)O` (stereo not drawn): the TGI with OVCAR-3 ovarian, with SF-295 CNS, in the test with KM12 colon, with HCC-2998 colon, in the test with HOP-62 NSCLC and in the test with DU-145 prostate was over 100 µM throughout. For the same compound, the TGI in the test with SK-MEL-5 melanoma, in the test with SNB-75 CNS, in the test with HS 578T breast and in the test with PC-3 prostate was over 100 µM throughout.
As to `COc1ccc(C(=O)/C=C/c2ccc(OCCCCCCCCCCOc3ccc(/C=C/C(=O)c4ccc(OC)cc4)cc3)cc2)cc1`, the TGI in the test with SF-295 CNS, with KM12 colon, with HCC-2998 colon, in the test with HOP-62 NSCLC, with DU-145 prostate and in the test with SK-MEL-5 melanoma was over 100 µM each time. The TGI in the test on SNB-75 CNS, in the test with HS 578T breast and in the test with PC-3 prostate was over 100 µM each time.
Turning to `COC(=O)C1=CO[C@@H](C)[C@@H]2Cn3ccc4c5ccccc5nc-4c3C[C@H]12`, the TGI with OVCAR-3 ovarian, with SF-295 CNS, in the test on HOP-62 NSCLC, in the test on SK-MEL-5 melanoma, in the test with SNB-75 CNS and in the test on MALME-3M melanoma was over 100 µM each time.
With `O=S1(=O)c2ccccc2N(O)C2=NCCN21`, the TGI in the test with OVCAR-3 ovarian, in the test with SF-295 CNS, with KM12 colon, with HCC-2998 colon, in the test on HOP-62 NSCLC and in the test with SK-MEL-5 melanoma was over 100 µM throughout. Moreover, the TGI in the test with SNB-75 CNS and in the test on MALME-3M melanoma was over 100 µM in each case.
Consider `CC(C)(C)C1=CC(=N/N=c2\scc(-c3ccccc3)n2-c2ccccc2)C=C(C(C)(C)C)C1=O`, for which the TGI with OVCAR-3 ovarian, in the test on SF-295 CNS, with KM12 colon, in the test with HCC-2998 colon, with HOP-62 NSCLC and in the test with SK-MEL-5 melanoma was over 100 µM throughout. For the same compound, the TGI with SNB-75 CNS and in the test with MALME-3M melanoma was over 100 µM throughout.
Regarding `COC(=O)C(Cc1c[nH]c2ccccc12)NC(=O)C(Cc1cnc[nH]1)NC(=O)C1CCC(=O)N1C(=O)OCc1ccccc1` (stereo not drawn), the TGI in the test with KM12 colon, with HCC-2998 colon, in the test on HOP-62 NSCLC, in the test with SK-MEL-5 melanoma, in the test with SNB-75 CNS and with HS 578T breast was over 100 µM each time. In addition, the TGI in the test on MALME-3M melanoma and in the test with PC-3 prostate was over 100 µM throughout.
On to `Cc1nc2c(c(N3CCN(C)CC3)n1)Cc1ccccc1-2`, for which the TGI in the test on SF-295 CNS, in the test on KM12 colon, in the test on DU-145 prostate, with SK-MEL-5 melanoma, in the test on SNB-75 CNS and in the test on HS 578T breast was over 100 µM each time. Besides, the TGI in the test on MALME-3M melanoma and in the test on PC-3 prostate was over 100 µM each time.
As to `COc1ccc2[nH]cc(CCNC(=O)[C@H](Cc3ccc(O)cc3)NC(=O)[C@@H](NCC(F)(F)F)C(C)C)c2c1`, the TGI is 57.4 µM in the test with OVCAR-3 ovarian; over 100 µM in the test with SF-295 CNS; over 100 µM in the test with KM12 colon; over 100 µM in the test on HOP-62 NSCLC; over 100 µM in the test with DU-145 prostate; 91.1 µM in the test on HS 578T breast. Also, the TGI in the test with MALME-3M melanoma and in the test with PC-3 prostate was over 100 µM in each case.
For the compound `O=S(=O)(O)c1ccc(N=Nc2ccccc2)cc1`, the TGI in the test on OVCAR-3 ovarian, with SF-295 CNS, in the test with KM12 colon, with HCC-2998 colon, in the test with HOP-62 NSCLC and with DU-145 prostate was over 100 µM in each case. For the same compound, the TGI in the test on SK-MEL-5 melanoma, in the test with HS 578T breast and in the test on PC-3 prostate was over 100 µM throughout.
